Measured values reported in PubChem BioAssay AID489006 (Sanford-Burnham Center for Chemical Genomics, 2010).
Calls of active or inactive are those of the source. No rule for the calls is given here.

Test system: Jurkat NF-kB reporter, luminescence
Assay: Jurkat NF-kB signaling inhibitors – cell-based, luminescence, selectivity assay for B-cell receptor NF-kB inhibitor project, dose response (AID 489006)

Row | SMILES | IC50
1 | Cc1ccc(CSc2nnc(SCC(=O)N/N=C/C=C/c3ccccc3[N+](=O)[O-])s2)cc1 | 67 µM (inactive)
2 | Cn1c(=O)cc(OCC(=O)N2CCC3(CC2)OCCO3)c2ccccc21 | > 80 µM (inactive)
3 | Cn1c(=O)n(C)c2cc(NC(=O)CSc3nnc(-c4ccccc4O)n3-c3ccccc3)ccc21 | 50.1 µM (inactive)
4 | COc1ccc(Cc2nc(-c3ccc(NC(=O)c4cccnc4)cc3)no2)cc1 | > 80 µM (inactive)
5 | COc1ccc(C(C(=O)NC2CCCCC2)N(C(=O)CCl)c2ccc(Cl)cc2)cc1 (stereo unspecified) | 0.47 µM
6 | Cc1ccc(/C=C2\SC(=S)N(CCCC(=O)Nc3ccc(O)cc3)C2=O)cc1 | 18.9 µM
7 | CN(C)S(=O)(=O)c1ccc(NC(=O)N2CCN(c3ccccc3)CC2)cc1 | > 80 µM (inactive)
8 | COc1ccc(/C=C/c2ccccc2)cc1[C@H]1[C@H]2C=CC[C@@H](C)[C@@H]2C(=O)N1Cc1ccccc1 | > 80 µM (inactive)
9 | Cn1c(=O)cc(OCCCC(=O)N2CCCCC2)c2ccccc21 | > 80 µM (inactive)
10 | CCCCCCn1c(-c2ccco2)nc2oc3cc(OC)ccc3c(=O)c2c1=O | > 80 µM (inactive)
11 | COc1cc(C2C(C#N)=C(N)Oc3cc(N)ccc32)cc(OC)c1OC (stereo unspecified) | > 80 µM (inactive)
12 | COc1ccc(-c2ccc(F)cc2)cc1[C@H]1[C@H]2C=CC[C@@H](C)[C@@H]2C(=O)N1Cc1ccccc1 | > 80 µM (inactive)
13 | CSc1ccc(-c2nc(CSCC(=O)NC3CC3)c(C)o2)cc1 | > 80 µM (inactive)
14 | COc1ccccc1/C=C1/SC(=S)N(CCC(=O)Nc2cccnc2)C1=O | > 80 µM (inactive)
15 | CN(CC1CCCO1)S(=O)(=O)c1ccc(C(=O)Nc2nc3cc4c(cc3s2)OCO4)cc1 (stereo unspecified) | > 80 µM (inactive)
16 | COc1ccc(-c2noc(CCCC(=O)Nc3ccc(C(N)=O)cc3)n2)cc1 | 11.9 µM
17 | CCN(CC)c1ccc(/C=N/N=C(c2ccccc2)c2ccccc2)c(O)c1 | > 80 µM (inactive)
18 | Cc1ccc(C(=O)N2CCCC(c3ccc(Cl)cc3)=N2)cc1 | > 80 µM (inactive)
19 | CC1CC(C)(C)Nc2ccc(OC(=O)c3ccco3)cc21 (stereo unspecified) | 3.18 µM
20 | CCc1ccc(/C=C2\SC(=S)N(CCC(=O)Nc3cc(C)on3)C2=O)cc1 | 4.06 µM
21 | COc1ccc(-c2noc(CCCC(=O)O)n2)cc1 | 1.4 µM
22 | COc1ccc(NC(=O)c2cc(-c3ccccn3)nc3ccccc23)cc1S(=O)(=O)N(C)C | 26.6 µM (inactive)
23 | COc1cc(NC(=O)c2ccco2)c(OC)cc1NC(=O)c1cc(OC)c(OC)c(OC)c1 | 23 µM (inactive)
24 | COc1ccc(/C=C2\SC(=O)N(CCCC(=O)Nc3ccc(C(=O)O)cc3)C2=O)cc1OC | 29.4 µM (inactive)

Row | SMILES | IC50
25 | O=C(C1CCC1)N1CCN(S(=O)(=O)c2ccc([N+](=O)[O-])cc2)CC1 | > 80 µM (inactive)
26 | CCN(CC)CCCN=Cc1c(-c2ccccc2)[nH]n(-c2nc3ccccc3s2)c1=O | 7.55 µM
27 | CCOc1ccc(-c2nc(CSCC(=O)NCc3ccco3)c(C)o2)cc1 | 64 µM (inactive)
28 | CCc1ccc(/C=C2/SC(=S)N(CCC(=O)Nc3cccnc3)C2=O)cc1 | > 80 µM (inactive)
29 | CCn1c(=O)cc(OCC(=O)N(C)C2CCCCC2)c2ccccc21 | > 80 µM (inactive)
30 | Cc1ccc(C(=O)CSc2nnc(COc3ccccc3)o2)cc1 | > 80 µM (inactive)
31 | Cc1nc2cc(-c3cccc(F)c3)nn2c(C)c1CCC(=O)N1CCC2(CC1)OCCO2 | 20.7 µM (inactive)
32 | CCOc1ccc(-c2cc(CCCC(=O)NCCCOC)no2)cc1 | > 80 µM (inactive)
33 | CC1=CC(C)(C)Nc2ccc(OC(=O)C(C)N3C(=O)c4ccccc4C3=O)cc21 (stereo unspecified) | 1.19 µM
34 | O=C(CSCCO)Nc1ccc(C23CC4CC(CC(C4)C2)C3)cc1 | > 80 µM (inactive)
35 | CCC(C)NC(=O)c1c(N)n(/N=C/c2ccccn2)c2nc3ccccc3nc12 (stereo unspecified) | 22.7 µM (inactive)
36 | COc1ccc(-c2ccc(OC)c([C@H]3[C@H]4C=CC[C@@H](C)[C@@H]4C(=O)N3Cc3ccccc3)c2)cc1C | > 80 µM (inactive)
37 | CCn1c(CN2CCN(c3ccc(Cl)cc3)CC2)nc2ccccc21 | 39.9 µM (inactive)
38 | CCN1C(=O)c2cccc3c(S(=O)(=O)NCC4CCCO4)ccc1c23 (stereo unspecified) | > 80 µM (inactive)
39 | CCOc1ccc(-c2nc(CSCC(=O)NC3CC3)c(C)o2)cc1 | > 80 µM (inactive)
40 | COC(=O)c1c(-c2ccc(N(C)C)cc2)sc2ccc(OC)cc12 | > 80 µM (inactive)
41 | O=C(CCCN1C(=O)/C(=C/c2ccccc2Cl)SC1=S)NNC(=O)c1ccc(Cl)cc1 | 2.04 µM
42 | Cc1ccc(/C=C2\SC(=S)N(CCCC(=O)NNC(=O)c3ccccc3O)C2=O)cc1 | 0.89 µM
43 | O=C(CCl)Nc1ccccc1Sc1ccccc1 | 14.1 µM
44 | O=C(N/N=C/c1cccnc1)c1cc(-c2ccccc2OCc2ccccc2)n[nH]1 | > 80 µM (inactive)
45 | CCC(C)[C@H](N)c1nnc(SCC(=O)c2ccc(Cl)cc2)o1 (stereo partly specified) | 72.9 µM (inactive)
46 | Cc1nn(C(C)(C)C)c(OC(=O)c2ccc(Br)o2)c1Sc1ccccc1 | > 80 µM (inactive)
47 | Cc1ccc(C)c(OCc2ccc(C(=O)NN)o2)c1 | > 80 µM (inactive)
48 | Cc1ccccc1-c1cc(C(=O)Nc2sc(C(=O)OC(C)C)c(C)c2C#N)c2ccccc2n1 | > 80 µM (inactive)

Row | SMILES | IC50
49 | Cc1c(NC(=O)/C=C/c2cn(-c3ccccc3)nc2-c2ccccc2)c(=O)n(-c2ccccc2)n1C | > 80 µM (inactive)
50 | Cc1noc(C)c1CSc1nc2[nH]ncc2c(=O)n1-c1ccccc1 | 34.3 µM (inactive)
51 | O=C1CCCc2c1[nH]c1ccc(CN3CCCCC3)cc21 | > 80 µM (inactive)
52 | Cc1nn(C)c(C)c1CN(C)S(=O)(=O)c1ccc2ccccc2c1 | > 80 µM (inactive)
53 | Cc1c(CC(=O)NCCCC(=O)O)c(=O)oc2cc3c(cc12)CCC(C)(C)O3 | 4.17 µM
54 | CCn1c(=O)cc(SCC(=O)N2CCN(C(=O)c3ccco3)CC2)c2ccccc21 | > 80 µM (inactive)
55 | Cc1ccc(Sc2cc(NCCCO)c([N+](=O)[O-])c3nonc23)cc1 | > 80 µM (inactive)
56 | Cc1ccc(/C=C2\SC(=S)N(CCCC(=O)NC3CCCC3)C2=O)cc1 | 0.73 µM
57 | CCOc1cc(/C=N\Nc2nc(Nc3ccccc3)nc(N3CCOCC3)n2)ccc1OC(=O)c1ccco1 | > 80 µM (inactive)
58 | Cc1ccc(-c2nsc3c(N4CCC(C(N)=O)CC4)ncnc23)cc1 | 78.1 µM (inactive)
59 | CC(C)CCNC(=O)CCCOc1cc(=O)n(C)c2ccccc12 | 70.4 µM (inactive)
60 | O=C(CCCN1C(=O)/C(=C/c2ccccc2Cl)SC1=S)NNC(=O)c1ccc(Cl)cc1Cl | 0.76 µM
61 | CCCNC(=O)CSCc1nc(-c2ccc(SC)cc2)oc1C | > 80 µM (inactive)
62 | CCN(CC)CCOC(=O)c1ccc(NC(=O)COc2cc(=O)n(CC)c3ccccc23)cc1 | 43.8 µM (inactive)
63 | CC1CN(S(=O)(=O)c2ccc(C(=O)Nc3nc(-c4cc5ccccc5o4)cs3)cc2)CC(C)O1 (stereo unspecified) | 49.9 µM (inactive)
64 | Cc1cc(C)c(CN2CCN(C(=O)Cn3cnc4c(NCc5ccccc5)ncnc43)CC2)c(C)c1 | 69.9 µM (inactive)
65 | Cc1cc(=O)[nH]c2c(C)cc(S(=O)(=O)N3CCCCC3)cc12 | > 80 µM (inactive)
66 | C=CCOC(=O)COc1cc(C)cc2oc(=O)c3c(c12)CCC3 | > 80 µM (inactive)
67 | CCCN1C(=O)/C(=C/c2c(N3CCNC(=O)C3CC(=O)OCC)nc3c(C)cccn3c2=O)SC1=S (stereo unspecified) | 24.4 µM (inactive)
68 | Cn1c(=O)n(C)c2cc(C(=O)Nc3ccc4c(c3)OCO4)ccc21 | > 80 µM (inactive)
69 | CCN(CC)c1ccc2cc(NC(=O)CCC(=O)O)c(=O)oc2c1 | 0.46 µM
70 | Cc1ccc(/C=C2\SC(=S)N(CCCC(=O)Nc3cc(C)on3)C2=O)cc1 | 17.7 µM
71 | COc1ccccc1/C=C1\SC(=S)N(CCC(=O)Nc2nnc(C)s2)C1=O | > 80 µM (inactive)
72 | CCC(C)(C)c1ccc(OCCCC[n+]2ccccc2)c(C(C)(C)CC)c1 | 5.79 µM

Row | SMILES | IC50
73 | COc1cc(-c2nc3ccc(N4CCN(C)CC4)cc3[nH]2)cc(OC)c1OC | > 80 µM (inactive)
74 | Cc1csc(NC(=O)/C=C/c2ccc3c(c2)OCO3)n1 | > 80 µM (inactive)
75 | Cc1ccc(-c2nn3c(C)nnc3c3ccccc23)cc1S(=O)(=O)NCCN1CCOCC1 | > 80 µM (inactive)
76 | Cc1ccc2nc(NC(=O)CSCC(=O)OCC(=O)c3ccc(Br)cc3)sc2c1 | 0.33 µM
77 | COc1cccc(Cn2nnc(C(=O)Nc3cc(Cl)ccc3OC)c2N)c1 | > 80 µM (inactive)
78 | Cc1cc(NC(=O)CCCN2C(=O)/C(=C/c3ccccc3Cl)SC2=S)no1 | 20.4 µM (inactive)
79 | CCOc1ccc(/C=C2\SC(=S)N(CCC(=O)Nc3ccc(C(=O)O)cc3)C2=O)cc1 | > 80 µM (inactive)
80 | CCC(=O)N1c2ccccc2[C@@H](N(C(C)=O)c2ccccc2)C[C@H]1C | 57 µM (inactive)
81 | Cn1c(=O)cc(OCCCC(=O)NC2CCCC2)c2ccccc21 | 39.5 µM (inactive)
82 | O=C(Nc1cccc(Br)c1)c1ccc2c(c1)SC1=NS(=O)(=O)CCN12 | > 80 µM (inactive)
83 | N=c1c2c(n(Cc3cccc(Cl)c3)c3c1CCC3)CCCC2 | 27.6 µM (inactive)
84 | CCc1cccc(NC(=O)c2ccc(CNc3c(N4CCCC4)c(=O)c3=O)cc2)c1 | > 80 µM (inactive)
85 | O=C(CN1C(=O)c2ccccc2S1(=O)=O)c1ccc(Cl)cc1Cl | 0.78 µM
86 | CC(C)C(c1nnnn1Cc1ccccc1)N(Cc1ccco1)Cc1cccs1 (stereo unspecified) | 73.6 µM (inactive)
87 | CCN(CC(=O)Nc1c(F)cccc1F)C(=O)c1cc([N+](=O)[O-])ccc1N1CCCCC1 | > 80 µM (inactive)
88 | COc1ccc(-c2csc3nc(-c4cccnc4)nc(N4CCC(C(N)=O)CC4)c23)cc1OC | 12.1 µM
89 | CC(C)CN(C(=O)COC(=O)C12CC3CC(CC(C3)C1)C2)c1c(N)n(Cc2ccccc2)c(=O)[nH]c1=O | 13.4 µM
90 | Cc1cnc(NC(=O)Nc2ccc(Cl)cc2)s1 | > 80 µM (inactive)
91 | COc1ccc(/C=C2/SC(=S)N(CCCC(=O)Nc3ccc(O)cc3)C2=O)cc1OC | > 80 µM (inactive)
92 | COc1ccc(C(=O)N/N=C/c2ccc(OC)c(CN3CCCc4ccccc43)c2)cc1 | > 80 µM (inactive)
93 | ClCc1nnc(-c2ccccc2)o1 | 10.5 µM
94 | O=C(O)COc1ccc(-c2nccc(-c3ccccn3)n2)cc1 | 0.22 µM
95 | C=CCOc1ccccc1CN(C(=O)CCl)c1ccc2c(c1)OCO2 | 1.7 µM
96 | COc1ccc(C(=O)N/N=C/c2sc(N3CCOCC3)nc2-c2ccccc2)cc1OC | 35.5 µM (inactive)
